Measurements reported in patent US9932317B2, “Quinazoline compounds and their use in therapy” (Imperial Innovations Limited, priority 2012, dated 2018).

Columns and labels:
[1] = system: EZH2 target genes (KRT17, FBXO32) in MDA-MB-231 cells; assay: Real-time RT-PCR cell based assay for up-regulation of H3K27me3 silenced genes
Source text: In order to monitor the reversal of epigenetic silencing associated with H3K27me3, a cell based assay was established using the breast-cancer cell line MDA-MB-231 for which EZH2 expression levels as well as EZH2 target genes have been characterised (17). For initial characterisation of compound activity two genes (KRT17, FBXO32) were selected which are primarily silenced by H3K27me3 in combination with H3K9me2/3 but are not DNA methylated. Furthermore, the DNA methylated gene (RUNX3) was selected to control for effects at loci that are silenced by H3K27me3 in combination with CpG island DNA methylation. The two enzymes which perform H3K27 methylation (EZH2) and demethylation (JMJD3) were also included. Cell death can lead to the down-regulation of EZH2 and up-regulation of JMJD3 in cells (36) and is therefore important to control for indirect effects due to cell death in such a cell-based assay.
In order to identify compounds which can mediate the reactivation of PRC2 silenced genes, MDA-MB-231 cells were treated for 48 h at a concentration of 10 μM of Example compounds 3 (HKMTi-1-005), 4 (HKMTi-1-022) or 5 (HKMTi-1-011), as well as with the comparative examples BIX-01294 or UNC0224, and mRNA levels of KRT17, FBXO32, RUNX3, as well as EZH2 and JMJD3 were measured by real-time RT-PCR. The data were normalised against the housekeeping gene GAPDH as well as RNA pol II (only results for GAPDH are shown, although consistent results were obtained with RNA pol II normalisation). […] The reported G9a/GLP specific inhibitors BIX01294 and UNC0224 have a very different activity profile on gene expression.
(§1) To characterise example compounds 3 (HKMTi-1-005), 4 (HKMTi-1-022) and 5 (HKMTi-1-011) further, MDA-MB-231 cells were treated for 48 h and 72 h at various concentrations (FIGS. 1d and e). […] At higher doses of compounds cell death started to occur, particularly at 72 h, which coincides with a dramatic drop in GAPDH levels. At these doses, expression of KRT17 was often below the detection limit of low-expressed genes due to cell death (indicated as “*” in FIGS. 1d and e). Independently synthesised batches of Example compounds 3 (HKMTi-1-005), 4 (HKMTi-1-022) and 5 (HKMTi-1-011) were prepared and assessed to ensure reproducibility of our results and indeed confirmed that those compounds could induce gene re-expression of KRT17 and FBXO32.
Cell culture and compound treatment: MDA-MB-231, T47D, MCF7, BT474, BT549 and SKBR3 breast cancer cell lines were cultured in DMEM-Medium supplemented with 10% FCS (#02.00.830, First Link (UK), 2 mM L-Glutamine (#25030-024, Invitrogen), 100 U/ml Penicillin and 100 μg/ml Streptavidin (#15070-063, Invitrogen) until they were ˜60% confluent and then treated for either 48 h or 72 h with a compound. Compounds were diluted in DMSO at Stocks of 10 mM. MCF-10a breast cell lines were cultured in DMEM/F12-Medium supplemented with 5% horse serum, EGF (20 ng/ml), Hydrocortizone ([…]), Cholera Toxin (100 ng/ml), Insulin (10 μg/ml) as well as 100 U/ml Penicillin and 100 μg/ml Streptavidin (#15070-063, Invitrogen). For MTT experiments, cells were either kept in DMEM/F12 growth medium or in normal DMEM-Medium to mimic the ‘normal’ non-dividing cell state.
Following compound treatment for 48 h (in 6-well plates), media was removed and 1.5 ml of TRIzol (#155966018, Invitrogen) was added directly to lyse cells. Once cells were lysed, the protocol was continued with 1 ml (TRIzol, cell lysate) according to the manufactures instructions. Purified RNA was dissolved in 35 μl of UltraPure DNase/RNase-free distilled water (#10977049, Invitrogen). Reverse transcription was done using the SuperScript III First-Strand Synthesis System (#18080-051, Invitrogen) according to the manufactures instructions, using 7 μl of the purified RNA as starting material. For real-time measurements the 2×iQ SYBR Green Supermix (#170-8882, Bio-Rad), 200 nM Primers and 0.4 μl of cDNA/per 20 μl reaction was used. […]

[2] = reported; cited from earlier work
[3] = system: histone marks at KRT17 and FBXO32 promoter region in MDA-MB-231 cells; assay: Chromatin Immunoprecipitation (ChIP) at KRT17 and FBXO32 promoter; type: cell-based; conditions: MDA-MB-231, 5 μM, 72 h
Method: The fold difference to the untreated sample is shown. Each IP-value has been determined as the relative increase to the no-antibody control and then normalised to GAPDH levels.
(§2) Chromatin Immunoprecipitation (ChIP) experiments were carried out on treated MDA-MB-231 cells to verify that the detected gene up-regulation is indeed due to chromatin remodelling (FIG. 2). For this, typical silencing marks such as H3K9me3 and H3K27me3 were tested as well as activating marks such as H3K4me3, H3K27ac and H3K9ac. […] It should be noted that greater than 50% cell death is observed for compound 5 (HKMTi-1-011) at this concentration, but not for the others, and the changes observed in histone marks for compound 5 (HKMT-1-011) may reflect ongoing cell death.
ChIP was accomplished using Dynabeads Protein A (Invitrogen #100-01D.) according to (41), except that following the Chelex-DNA purification an additional purification with QIAquick PCR Purification Kit (#28106, Qiagen) was carried out, here the ChIP-products were eluted in 50 μl and for subsequent real-time measurements (as described above) 1.5 μl per reaction was used. The list of Primers can be found in FIG. 7 (Supplementary Table 2).

MDA-MB-231 cells = assay: Cell death of treated MDA-MB-231 cells; type: cell-based; conditions: MDA-MB-231, concentration of the ChIP experiment (5 μM, 72 h)
Method: as §1
as §2, with “death. […]” for “death.”

[4] = system: EZH2 target genes in MDA MB-231 cells; assay: Agilent two-colour gene expression microarrays, enrichment of EZH2 target genes; type: cell-based; conditions: MDA MB-231, 10 μM
Method: Agilent two-colour microarrays were used to profile gene expression changes induced 24 h and 48 h after 10 μM treatment with example compound 3 (HKMTi-1-005) compared to compound HKMTi-1-012. […] Many of these EZH2 target genes are clearly differentially expressed following treatment with example compound 3 (HKMTi-1-005) compared to compound HKMTi-1-012, as shown in Table 2 in FIG. 5. Statistical enrichment of EZH2-target genes (Lee et al 2011) in the lists of differentially expressed genes was evaluated using the hypergeometric distribution. Example compound 3 (HKMTi-1-005) results in significant upregulation (p=3.3^−33 at 24 h and p=3.2^−21 at 48 h) and significant down-regulation (p=3.5^−37 at 24 h and p=3.8^−61 at 48 h) of EZH2 target genes. […]
Normalised log 2 gene expression ratios were analysed using LIMMA (Smyth 2004) to obtain empirical Bayes moderated t-statistics reflecting statistical significance of differential expression across the 4 replicates for each drug, time combination. […]
Statistical significance of overlap between these lists of EZH2 targets and the genes differentially expressed upon drug treatment in our microarray study was assessed using the hypergeometric distribution.

[5] = MDA-MB-231, 10 μM, 48 h, normalised to GAPDH
[6] = MDA-MB-231, various concentrations, 48 h and 72 h

SMILES	FBXO32 RNA levels [1, 5]	KRT17 RNA levels [1, 5]	separation of functional potency and cell toxicity [2]	RUNX3 expression [1, 5]	FBXO32 mRNA level [1, 6]	JMJD3 mRNA level [1, 6]	KRT17 mRNA level [1, 6]	permissive chromatin marks (H3K4me3, H3K4me2, H3K9ac, H3K27ac) [3]	repressive chromatin marks (H3K27me3, H3K9me3) at KRT17 and FBXO32 [3]	cell death (MDA-MB-231 cells)	gene expression profile in the cell assay (KRT17, FBXO32, RUNX3) ([1]; MDA-MB-231, 10 μM, compared with example compounds 3, 4 and 5)	EZH2 mRNA level [1, 6]	RUNX3 expression [1, 6]	functional enrichment of changed pathways (DAVID) [4]	JMJD3 binding [3]	permissive chromatin marks (H3K4me3, H3K4me2, H3K9ac, H3K27ac) ([3]; listed as HKMT-1-022)
COc1cc2nc(N3CCCN(C)CC3)nc(NC3CCN(Cc4ccccc4)CC3)c2cc1OC [BIX-01294, reference compound]	does up-regulate	does not up-regulate	poor separation of functional potency and cell toxicity													
COc1cc2nc(N3CCN(c4ccccn4)CC3)nc(NC3CCN(Cc4ccccc4)CC3)c2cc1OC [HKMTi-1-011]	up-regulate	up-regulate		not effecting	increase in a dose dependent manner	increase in a dose dependent manner	increase in a dose dependent manner	increase in most permissive marks	clear decrease	greater than 50%						
COc1cc2c(NC3CCN(C)CC3)nc(N3CCCN(C)CC3)nc2cc1OCCCN(C)C [UNC0224, reference compound]	very little effect	very little effect									very little effect					
Nc1nccc2c1ncn2C1C=C(CO)C(O)C1O (stereo not drawn) [DZNep, reference compound]					unaffected	unaffected	consistently up-regulated					unaffected	increased under certain conditions although not in a dose dependent manner			
COc1cc2nc(N3CCN(C)CC3)nc(NC3CCN(Cc4ccccc4)CC3)c2cc1OC [HKMTi-1-005]	up-regulate	up-regulate		not effecting	dose-dependent increase	dose-dependent increase	dose-dependent increase	increase in most permissive marks	clear decrease					upregulation of apoptosis genes and the lysosome pathway, and a downregulation of a number of processes related to cell cycle & cell division		
COc1cc2nc(N3CCCCC3)nc(NC3CCN(Cc4ccccc4)CC3)c2cc1OC [HKMTi-1-022]	up-regulate	up-regulate		not effecting	increase in a dose dependent manner	increase in a dose dependent manner	increase in a dose dependent manner	increase of the activating marks H3K4me3, H3K27ac and H3K9ac	clear decrease						increase	concomitant increase in all permissive chromatin marks examined
